The values below come from patent US4973704A, “Pyrrolyl intermediates in the synthesis of pyrrole analogs of mevalonolactone and derivatives thereof” (Sandoz Pharm. Corp., priority 1989, dated 1990).

In general, ED50 refers to the dose at which the effect has come halfway, by size or by number of responders.

In one assay the target is T1, HMG-CoA reductase (Rattus norvegicus, UniProt P51639).
T1 construct: from tissue; host or cells: microsomes (printed)
T1 sequence (P51639 1-887): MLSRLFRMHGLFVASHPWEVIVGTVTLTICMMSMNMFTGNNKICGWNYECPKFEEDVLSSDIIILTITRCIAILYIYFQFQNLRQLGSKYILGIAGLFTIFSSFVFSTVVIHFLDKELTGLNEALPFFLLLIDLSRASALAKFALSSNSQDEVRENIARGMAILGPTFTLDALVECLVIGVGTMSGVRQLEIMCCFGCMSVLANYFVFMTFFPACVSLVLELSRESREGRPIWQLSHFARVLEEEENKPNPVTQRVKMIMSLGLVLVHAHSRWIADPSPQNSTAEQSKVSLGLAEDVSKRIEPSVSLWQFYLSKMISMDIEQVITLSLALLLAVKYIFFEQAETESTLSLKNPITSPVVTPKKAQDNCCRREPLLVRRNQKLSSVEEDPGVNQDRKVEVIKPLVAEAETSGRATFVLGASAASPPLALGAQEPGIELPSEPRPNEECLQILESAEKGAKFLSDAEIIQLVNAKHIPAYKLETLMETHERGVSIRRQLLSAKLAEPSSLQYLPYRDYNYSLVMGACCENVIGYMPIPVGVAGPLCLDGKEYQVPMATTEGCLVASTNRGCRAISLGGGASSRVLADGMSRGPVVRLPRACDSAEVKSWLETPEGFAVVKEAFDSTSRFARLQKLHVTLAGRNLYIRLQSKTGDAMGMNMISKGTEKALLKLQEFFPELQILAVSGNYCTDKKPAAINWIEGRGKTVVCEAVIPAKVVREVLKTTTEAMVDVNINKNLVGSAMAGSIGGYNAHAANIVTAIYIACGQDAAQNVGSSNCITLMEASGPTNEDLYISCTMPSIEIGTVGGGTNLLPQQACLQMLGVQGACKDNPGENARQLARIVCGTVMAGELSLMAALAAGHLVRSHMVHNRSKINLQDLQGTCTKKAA
Put plainly: Test A. In Vitro Microsomal Assay of HMG-CoA Reductase Inhibition. The format is biochemical. How it is done: Test A. In Vitro Microsomal Assay of HMG-CoA Reductase Inhibition:
This test is carried out precisely as described in column 53 of U.S. Pat. No. 4,613,610 and on page 30 of World (PCT) Published Patent Application No. 84/02131, both of which are hereby incorporated by reference as if set forth herein in their entirety. The concentration of the test substance (compound of Formula I) in the assay system is 0.0005-2,000 μmolar. The obtained IC50 is the concentration of the test substance in the assay system observed or calculated to produce a 50% inhibition of HMG-CoA reductase activity.

Assay [1] has as its system 3β-hydroxysterol synthesis. Put plainly: Test B. In Vivo Cholesterol Biosynthesis Inhibition Test. The note with it: Rattus norvegicus, po; rats, orally administered; read-out: ED50 (dose producing 50% inhibition of 3β-hydroxysterol synthesis).
Method: Test B. In Vivo Cholesterol Biosynthesis Inhibition Test:
In this test the rats are orally administered the test substance (compound of Formula I) at a dose of 0.1-200 mg/kg. body weight. The obtained ED50 is the dose of the test substance observed or calculated to produce a 50% inhibition of 3β-hydroxysterol synthesis.
[2] abbreviates: in vitro microsomal assay, read-out: IC50 (concentration producing 50% inhibition of HMG-CoA reductase activity).

Structures are written as SMILES. Like-named read-outs stand apart in the source and are kept apart here.

In turn, `CC[C@H](C)C(=O)O[C@H]1C[C@@H](C)C=C2C=C[C@H](C)[C@H](CC[C@@H]3C[C@@H](O)CC(=O)O3)[C@H]21` [Mevinolin] had an IC50 against HMG-CoA reductase of 720 nM.
With `CC[C@H](C)C(=O)O[C@H]1CCC=C2C=C[C@H](C)[C@H](CC[C@@H]3C[C@@H](O)CC(=O)O3)[C@H]21` [Compactin], the IC50 at HMG-CoA reductase (setting [2]) came to 1100 nM.
As for `CC(C)c1cc(-c2ccccc2)n(-c2ccc(F)cc2)c1/C=C/[C@@H](O)C[C@@H](O)CC(=O)O` (relative stereo) [Example 2, Sodium (±)-erythro-(E)-3,5-dihydroxy-7-[1'-(4"-fluorophenyl)-3'-(1"-methylethyl)-5'-phenyl-1H-pyrrol-2'-yl]hept-6-enoate], the ED50 in assay [1] came to 0.53 mg/kg. Besides, on HMG-CoA reductase (setting [2]), the IC50 was determined as 14 nM.
